Counter-ions that a name gives are not always drawn. Like-named read-outs stand apart in the source and are kept apart here.
Legend:
[1] = test system: HIV-1NL4-3 Nanoluc-sec virus; conditions: cited from earlier work
[2] = test system: HIV-1NL4-3 Nanoluc-sec virus; test: Anti-HIV assay: multicycle viral replication in MT4 cells, Nano-Glo luciferase readout; format: cell-based
Procedure: (§1) All of the synthetic derivatives were evaluated for anti-HIV activity by determining the inhibitory effects on virus replication in MT4 lymphocytes infected by HIV-1NL4-3 Nanoluc-sec virus. Cytotoxic activity tests were also carried out on MT4 cells.
In vitro activity was determined by a previously described HIV-1 infection assay. Briefly, a 96-well microtiter plate was used to set up the screening assay using MT4 cells infected by HIV-1NL4-3 Nanoluc-sec virus in the presence of various concentrations of derivatives. The viral replication thus can be monitored by measuring the luciferase activity using the Promega Nano-Glo Luciferase Assay System.

MT4 cells = test: CellTiter-Glo Luminescent Cytotoxicity Assay; format: cell-based; conditions: MT-4 cells, 3 days
Procedure: as §1
(§2) The cytotoxicity of the synthesized derivatives was determined using the CellTiter-Glo® Luminescent Cytotoxicity Assay (Promega, Madison, WI, USA). MT-4 cells were cultured in the presence of various concentrations of the compounds for 3 days. The percentage of viable cells was measured by following the protocol provided by the manufacturer. The CC50 was derived using the Quest Graph™ IC50 Calculator (https://www.aatbio.com/tools/ic50-calculator, accessed on 7 October 2021).

[3] = CellTiter-Glo Luminescent Cytotoxicity Assay; format: cell-based; conditions: human, MT-4 cells (MT4 lymphocytes)
Procedure: as §1, §2

[4] = 3D-QSAR dataset, actual values, ref activity data reported from our laboratory
[5] = Human immunodeficiency virus 1, MT4, 3D-QSAR dataset, actual values, entries matching the derivatives tested in this paper (Table 1)
[6] = Human immunodeficiency virus 1, MT4, read-out: PEC50, actual value converted from EC50, 3D-QSAR dataset

Row | Compound | EC50 [1, 4] [µM] | EC50 [2, 6] [µM] | other results
1 | beesioside I [compound 1] | 0.025 | – | PEC50 ([2]; actual value converted from EC50, 3D-QSAR dataset): 7.602
2 | CC(C)(CC(=O)OC1CCC23CC24CCC25COC6(C(C)(C)O)CCC(C)(O6)C2C(O)C(O)C5(C)C4CCC3C1(C)C)C(=O)O (stereo not drawn) [compound 9] | – | 1.79 | EC50 [2, 5]: 1.79 µM
3 | CC(=O)OC1C2C3(C)CCC(C(C)(C)O)(OCC24CCC25CC26CCC(OC(=O)CC2(CC(=O)O)CCCC2)C(C)(C)C6CCC5C4(C)C1OC(C)=O)O3 (stereo not drawn) [compound 8] | 1.59 | 1.59 | –
4 | CC(=O)OC1C2C3(C)CCC(C(C)(C)O)(OCC24CCC25CC26CCC(OC(=O)CC(C)C(=O)O)C(C)(C)C6CCC5C4(C)C1OC(C)=O)O3 (stereo not drawn) [compound 6] | 1.11 | 1.11 | –
5 | CC12CCC(C(C)(C)O)(OCC34CCC56CC57CCC(OC5OCC(O)C(O)C5O)C(C)(C)C7CCC6C3(C)C(O)C(O)C14)O2 (stereo not drawn) [compound 14] | 7.62 | 7.62 | –
6 | CC(=O)OC1C2C3(C)CCC(C(C)(C)O)(OCC24CCC25CC26CCC(OC2OCC(O)C(O)C2O)C(C)(C)C6CCC5C4(C)C1OC(C)=O)O3 (stereo not drawn) [compound 10] | 2.32 | 2.32 | –
7 | CC(=O)OC1C2C3(C)CCC(C(C)(C)O)(OCC24CCC25CC26CCC(OC(=O)CC(C)(C)C(=O)O)C(C)(C)C6CCC5C4(C)C1OC(C)=O)O3 [DSC, (20S,24S)-15ꞵ,16ꞵ-diacetoxy-18,24; 20,24-diepoxy-9,19-cyclolanostane-3ꞵ,25-diol 3-O-3′,3′-dimethylsuccinate] | – | – | EC50 ([1]; anti-HIV, previous work): 0.025 µM
8 | CC(=O)OC1C2C3(C)CCC(C(C)(C)O)(OCC24CCC25CC26CCC(OC(=O)CC(C)(C)C(=O)OCc2ccccc2)C(C)(C)C6CCC5C4(C)C1OC(C)=O)O3 (stereo not drawn) [compound 4] | – | 0.285 | EC50 [2, 5]: 0.285 µM
9 | CC(=O)OC1C(O)C2C3(C)CCC(C(C)(C)O)(OCC24CCC25CC26CCC(OC2OCC(O)C(O)C2O)C(C)(C)C6CCC5C14C)O3 (stereo not drawn) [compound 13] | 4.85 | 4.85 | –
10 | CC(=O)O[C@H]1[C@@H](OC(C)=O)[C@@]2(C)C3CCC4C(C)(C)[C@@H](OC(=O)CC(C)(C)C(=O)OCc5ccccc5)CC[C@@]45C[C@@]35CC[C@@]23CO[C@@]2(C(C)(C)O)CC[C@](C)(O2)[C@@H]13 (stereo partly drawn) (as salt: succinate) [3b, (20S,24S)-15β,16β-Diacetoxy-18,24;20,24-diepoxy-9,19-cyclolanostane-3β,25-diol-3-O-4′-(benzyloxy) carbonyl-3′,3′-dimethylsuccinate] | – | – | melting point: 188 to 190 °C
11 | CC(C)(CC(=O)OC1CCC23CC24CCC25COC6(C(C)(C)O)CCC(C)(O6)C2C(O)C(O)C5(C)C4CCC3C1(C)C)C(=O)OCc1ccccc1 (stereo not drawn) [compound 7] | – | 1.52 | EC50 [2, 5]: 1.52 µM
12 | Cc1cn([C@H]2C[C@H](N=[N+]=[N-])[C@@H](CO)O2)c(=O)[nH]c1=O [AZT, reference compound] | – | – | EC50 ([2]; MT4 cells infected by HIV-1NL4-3 Nanoluc-sec virus, mean +/− SD of 3 tests, read-out: EC50 (μM) NL4-3): 0.024 ± 0.0045 µM; CC50 (MT4 cells): > 0.3 µM
13 | CC(=O)O[C@H]1[C@@H](OC(C)=O)[C@@]2(C)C3CCC4C(C)(C)[C@@H](OC(=O)CC(C)(C)C(=O)OCc5ccccc5)CC[C@@]45C[C@@]35CC[C@@]23CO[C@@]2(C(C)(C)O)CC[C@](C)(O2)[C@@H]13 (stereo partly drawn) [3b, (20S,24S)-15β,16β-Diacetoxy-18,24;20,24-diepoxy-9,19-cyclolanostane-3β,25-diol-3-O-4′-(benzyloxy) carbonyl-3′,3′-dimethylsuccinate] | – | – | EC50 ([2]; Human immunodeficiency virus 1, NL43, MT4, read-out: EC50 (μM) NL4-3, MT4 cells infected by HIV-1NL4-3 Nanoluc-sec virus, mean +/− SD of 3 tests): 0.28 µM; CC50 at 3 days [3]: > 20 µM
14 | CC(C)(CC(=O)O[C@H]1CC[C@]23C[C@]24CC[C@]25CO[C@@]6(C(C)(C)O)CC[C@](C)(O6)[C@H]2[C@@H](O)[C@@H](O)[C@@]5(C)C4CCC3C1(C)C)C(=O)O (stereo partly drawn) [3 ^a] | – | 0.12 | –
15 | CC(=O)OC1C2C3(C)CCC(C(C)(C)O)(OCC24CCC25CC26CCC(OC(C)=O)C(C)(C)C6CCC5C4(C)C1OC(C)=O)O3 (stereo not drawn) [compound 11] | 2.44 | 2.44 | –
